Each structure is given as a SMILES string. ≈ marks a conversion by molar mass, not a printed value.

The source of these data is article PMC7071076, “Antibacterial Activity and Pharmacokinetic Profile of a Promising Antibacterial Agent: 22-(2-Amino-phenylsulfanyl)-22-Deoxypleuromutilin” (Molecules, 2020).

The test system of one assay is MRSA ATCC 43300. The assay is described as follows: Postantibiotic effect (PAE). The class given is cell-based, Staphylococcus aureus. As to the method:
The PAE was determined with previously methods. MRSA in logarithmic phase was diluted to 10^6 CFU/mL using MH broth as the inoculum. […] The group in which the drug was replaced by 0.9% saline was served as the control. All the samples were incubated at 37 °C for 1 and 2 h. At the end of incubation, the drug was removed by 1000-fold dilution with MH broth which was preheated at 37 °C. After well mixing, the broth was further cultured at 37 °C. 100 µL culture solution was extracted at different time intervals (0, 1, 2, 4, 6, and 8 h). Following a 10-fold dilution, colonies were counted after 20 h of incubation. The kinetic curve was established with the logarithm of the colony number as the ordinate and the time as the abscissa. The PAE was presented in hour and calculated by the equation PAE = TA − TC [40]. TA was defined as the culture time required for the number of MRSA to up to 1 log CFU/mL after the drug removal, and TC was the culture time required for the control group.

For a further assay, the system named is MRSA N20. The assay is described as follows: MIC testing, clinical strain. It is filed as cell-based. Particulars: Staphylococcus aureus. From the text: (§1) Methicillin-resistant Staphylococcus aureus (MRSA) ATCC 43300, Staphylococcus aureus ATCC 29213, Escherichia coli ATCC 25922, Salmonella typhimurium ATCC 14028, Enterococcus faecalis ATCC 29212, and Enterococcus faecium ATCC 35667 were obtained from the China Institute of Veterinary Drug Control (Beijing, China). Five clinical strains of MRSA (N7, N9, N20, N30, and N54) were isolated from diseased pig tissues of South China Agricultural University and Foshan University Animal Hospital. All clinical strains were identified as MRSA by Gram stain, catalase reaction, coagulase test, staphylococcus API identification system test, MecA gene test, and methicillin MIC test.
(§2) The MIC of amphenmulin against MRSA, Escherichia coli, Salmonella typhimurium, Enterococcus faecalis, and Enterococcus faecium were determined using tiamulin as controls. MIC values were measured by the method of previous work. Staphylococcus aureus ATCC 29213 was used as the quality control bacteria, and the quality control range was referred to the Clinical and Laboratory Standards Institute (CLSI). The bacteria solution was diluted to ~10^6 CFU/mL with Mueller–Hinton (MH) broth for MRSA, Escherichia coli and Salmonella typhimurium while Trypticase Soy Broth for Enterococcus faecalis and Enterococcus faecium. Drugs were dissolved in an aqueous solution of N, N-dimethylformamide (DMF) at a concentration of 2560 µg/mL, and then diluted with broth to prepare working solution (1280 µg/mL). The drug susceptibility testing was performed in 96-well plate. A total of 20 µL of working solution was added into column 1 and well mixed as a 10-fold dilution, following which Serial 2-fold dilutions were prepared to provide concentration ranges of 128–0.0078 µg/mL. Blank broth (no cultures) and bacteria solution (drugs replaced by blank solvent) were set as drug-free controls. Each 96-well plate was cultured at 37 °C for 24 h. The MIC value is the lowest concentration of amphenmulin which inhibits the visible growth of bacteria. The experiment was repeated three times.

In the next assay the test system is MRSA N54. Briefly: MIC testing, clinical strain. It is filed as cell-based. Particulars: Staphylococcus aureus.
Excerpt: as §1, §2

The next assay deals with MRSA N7. Briefly: MIC testing, clinical strain. Particulars: Staphylococcus aureus. The class given is cell-based.
Excerpt: as §1, §2

For another assay, the system named is MRSA N30. The assay is described as follows: MIC testing, clinical strain. It is filed as cell-based. Particulars: Staphylococcus aureus.
Excerpt: as §1, §2

For the next assay, the system named is MRSA N9. Briefly: MIC testing, clinical strain. It is filed as cell-based. The note with it: Staphylococcus aureus.
Excerpt: as §1, §2

As a reminder, the MIC is the lowest concentration that inhibits growth of the organism. Low readings indicate a more susceptible organism, high ones a less susceptible organism. As to `C=C[C@]1(C)C[C@@H](OC(=O)CSc2ccccc2N)[C@]2(C)[C@H](C)CC[C@]3(CCC(=O)[C@H]32)[C@@H](C)[C@@H]1O` [Amphenmulin, 22-(2-amino-phenylsulfanyl)-22-deoxypleuromutilin], the PAE with MRSA ATCC 43300 (1× MIC, exposure for 1 h) is given as 0.71 h; with MRSA ATCC 43300 (1× MIC, exposure for 2 h) it was 1.35 h; with MRSA ATCC 43300 (4× MIC, exposure for 1 h), 1.78 h; with MRSA ATCC 43300 (4× MIC, exposure for 2 h), 2.83 h. In addition, the minimum inhibitory concentration (MIC) in the assay with MRSA N20 stood at 4 mg/L (≈ 8.24 µM); in the assay on MRSA N54, 0.0156 mg/L (≈ 0.0321 µM); in the assay with MRSA N7 it was 4 mg/L (≈ 8.24 µM); in the assay on MRSA N30, 8 mg/L (≈ 16.5 µM); against MRSA N9, 0.0156 mg/L (≈ 0.0321 µM).
